The source of these data is patent EP4671246A1, “6-ALKOXYPYRAZOLOPYRIMIDINE COMPOUND AND PHARMACEUTICAL USE THEREOF” (Japan Tobacco Inc., priority 2023, dated 2024).

pIC50: −log10 of the molar value.

T1 sequence (Q96P20 whole entry): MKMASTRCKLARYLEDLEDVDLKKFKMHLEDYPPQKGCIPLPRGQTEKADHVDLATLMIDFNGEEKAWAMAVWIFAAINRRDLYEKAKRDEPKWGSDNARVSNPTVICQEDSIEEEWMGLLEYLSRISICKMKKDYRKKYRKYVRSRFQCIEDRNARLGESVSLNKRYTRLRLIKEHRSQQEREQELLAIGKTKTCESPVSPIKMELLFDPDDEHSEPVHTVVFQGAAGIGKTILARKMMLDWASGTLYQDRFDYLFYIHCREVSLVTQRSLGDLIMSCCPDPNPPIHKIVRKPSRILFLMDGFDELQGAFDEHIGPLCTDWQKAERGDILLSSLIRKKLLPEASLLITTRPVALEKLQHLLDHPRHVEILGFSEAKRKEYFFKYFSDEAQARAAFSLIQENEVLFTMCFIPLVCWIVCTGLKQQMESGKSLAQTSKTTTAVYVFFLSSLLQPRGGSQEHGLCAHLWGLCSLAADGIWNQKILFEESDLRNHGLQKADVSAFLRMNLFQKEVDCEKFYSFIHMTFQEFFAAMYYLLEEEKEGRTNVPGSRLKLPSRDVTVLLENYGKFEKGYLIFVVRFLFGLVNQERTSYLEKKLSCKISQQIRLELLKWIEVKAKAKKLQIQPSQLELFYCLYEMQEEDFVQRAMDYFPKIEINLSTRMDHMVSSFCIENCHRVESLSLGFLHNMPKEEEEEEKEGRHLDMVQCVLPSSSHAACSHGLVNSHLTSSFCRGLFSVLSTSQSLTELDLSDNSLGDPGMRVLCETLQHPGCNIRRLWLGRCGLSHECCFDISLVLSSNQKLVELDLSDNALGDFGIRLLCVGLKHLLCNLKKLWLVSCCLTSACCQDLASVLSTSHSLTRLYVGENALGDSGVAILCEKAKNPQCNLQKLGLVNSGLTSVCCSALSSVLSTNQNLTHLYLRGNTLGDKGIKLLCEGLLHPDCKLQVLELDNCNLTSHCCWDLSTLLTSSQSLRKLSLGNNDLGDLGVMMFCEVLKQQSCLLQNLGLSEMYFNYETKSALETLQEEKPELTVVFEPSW

The experiment concerns the target T1, NLRP3 inflammasome (Homo sapiens, UniProt Q96P20).
T1 construct: host or cells: THP1-Null cells (PMA-differentiated, LPS-primed, nigericin-stimulated)
As to the kind of experiment: Evaluation of NLRP3 inflammasome inhibitory activity (inhibition of IL-1β production in THP1-Null cells). Type of experiment: cell-based. Conditions: 0.5 µmol/L PMA overnight, 1 µg/mL Lipopolysaccharides 3 hours, Nigericin 7.5 µmol/L 1.5 hours, AlphaLISA Human IL-1β. The method, then:
The NLRP3 inflammasome inhibitory activity of test compounds were evaluated on the basis of the inhibitory activity of the IL-1β production in THP1-Null cells (Product Number: thp-null, InvivoGen). Cells were maintained for culture in RPMI-1640 media containing 10% (v/v) fetal bovine serum, 25 mmol/L HEPES, 100 U/mL penicillin, 100 µg/mL streptomycin, 100 µg/mL normocin, and 200 µg/mL hygromycin B (set at 37°C, 5% CO2/95% air) .
Cells were suspended with media for assay containing 0.5 µmol/L PMA (RPMI-1640 media containing 10% (v/v) fetal bovine serum, 100 U/mL penicillin, and 100 µg/mL streptomycin), and the suspended cells were seeded on Corning (registered trademark) 384-well Flat Clear Bottom Black Polystyrene TC-treated Microplates (25,000 cells/25 µL/well), followed by incubation (set at 37°C, 5% CO2/95% air) overnight. The supernatant of the culture was removed, and thereto was added media for assay (25 µL/well) containing 1 µg/mL Lipopolysaccharides (Product Number: L2654, Sigma-Aldrich (registered trademark)). Then, the culture was further incubated for 3 hours (set at 37°C, 5% CO2/95% air) . The supernatant of the culture was removed. Then, a vehicle solution prepared from Opti-MEM (trademark) medium (Product Number: 31985-070, Invitrogen) was added to blank-setting wells and control-setting wells (20 µL/well), followed by incubation for 15 minutes (set at 37°C, 5% CO2/95% air). A solution containing a test compound (20 µL/well) was added to test compound-setting wells. Further, Opti-MEM (trademark) medium containing Nigericin (Product Number: N7143, Sigma-Aldrich (registered trademark)) was added to the control-setting wells and test compound-setting wells (5 µL/well), followed by incubation for 1.5 hours (set at 37°C, 5% CO2/95% air). The final concentration of Nigericin was adjusted to be 7.5 µmol/L. 5 µL/well of Opti-MEM (trademark) medium was added to the blank-setting wells. The supernatant of the culture was cryonically stored (set at -20°C) until measurement of IL-1β.
The amount of IL-1β in the culture supernatant was quantitated with AlphaLISA (registered trademark) Human IL-1β Detection Kit (Product Number: AL220C, Perkin Elmer). Fluorescence intensity was measured with a microplate reader EnSpier (Model number: 2300-00J, Perkin Elmer) or EnSight (Model number: HH34000000, Perkin Elmer) according to procedure manuals attached thereto. Inhibition rates of the test compound-setting wells were calculated on the basis of 100% for the blank-setting wells and 0% for the control-setting wells. IC50 values (i.e., 50% inhibitory concentrations) of the test compounds were calculated by logistic regression analysis.
By pIC50 is commonly meant the IC50 on a negative log10 scale, so that one unit is a factor of ten. Turning to `COc1nc2nn(-c3ccc(C4CC4)cc3C(F)(F)F)cc2c(=O)[nH]1` [Example 45], the pIC50 is 7.85.

Consider `COc1nc2nn(-c3ccc(Cl)cc3CC3CC3)cc2c(=O)[nH]1` [Example 55], for which the pIC50 is 7.15.

Turning to `COc1nc2nn(-c3cc(C)ccc3C(F)(F)F)cc2c(=O)[nH]1` [Example 97], the negative-log IC50 (pIC50) is 5.92.

Regarding `COc1nc2nn(-c3c(C)cc(C4(O)CCC4)cc3C)cc2c(=O)[nH]1` [Example 27], the negative-log IC50 (pIC50) was 6.00.

`CCOc1nc2nn(-c3c(C)cc(OC)cc3C)cc2c(=O)[nH]1` [Example 51] gave a pIC50 of 7.57.

With `COc1nc2nn(-c3ccc(Cl)cc3C)cc2c(=O)[nH]1` [Example 11], the pIC50 is 7.30.

Turning to `COc1nc2nn(-c3ccc(C)cc3C)cc2c(=O)[nH]1` [Example 2], the negative logarithm of the IC50 (pIC50) was 7.10.

Turning to `Cc1c(-n2cc3c(=O)[nH]c(OCC4CC4)nc3n2)c(C(F)(F)F)nn1C(C)C` [Example 102], the pIC50 was 6.17.

As for `COc1nc2nn(-c3c(C)cc(Br)cc3OC(F)F)cc2c(=O)[nH]1` [Example 104], the pIC50 was 7.89.

In the case of `Cc1cc(C2CC2)cc(C)c1-n1cc2c(=O)[nH]c(OCCCS(C)(=O)=O)nc2n1` [Example 38], the negative logarithm of the IC50 (pIC50) was 8.10. This pIC50 lies 0.21 log units higher than the previous one.

`Cc1cc(Br)cc(C)c1-n1cc2c(=O)[nH]c(OCC(F)F)nc2n1` [Example 67] gave a negative logarithm of the IC50 (pIC50) of 7.37.

`COCC1(COc2nc3nn(-c4c(C)cc(Br)cc4C)cc3c(=O)[nH]2)CC1` [Example 18] had a negative-log IC50 (pIC50) of 7.47.

`Cc1cc(Br)cc(C)c1-n1cc2c(=O)[nH]c(OC3CCC(S(C)(=O)=O)CC3)nc2n1` (stereo not shown) [Example 52] had a negative logarithm of the IC50 (pIC50) of 7.23.

In turn, `COc1nc2nn(-c3c(C)cc(OC(F)F)cc3C)cc2c(=O)[nH]1` [Example 39, 2-(4-(difluoromethoxy)-2,6-dimethylphenyl)-6-methoxy-2,5-dihydro-4H-pyrazolo[3,4-d]pyrimidin-4-one] had a pIC50 of 7.74.

Take `COc1nc2nn(-c3c(C)cc(C(C)(F)F)cc3C)cc2c(=O)[nH]1` [Example 71]: the pIC50 was 7.38.

Molecule `COc1cc(F)c(-n2cc3c(=O)[nH]c(OC)nc3n2)c(Cl)c1` [Example 76] gave a pIC50 of 7.13.

Turning to `COc1nc2nn(-c3c(C)cc(C(F)F)cc3C)cc2c(=O)[nH]1` [Example 65], the negative logarithm of the IC50 (pIC50) is 6.85. This pIC50 is 0.28 log units lower than that of the molecule before.

`Cc1cc(Br)cc(C)c1-n1cc2c(=O)[nH]c(OC3CCS(=O)(=O)CC3)nc2n1` [Example 44] gave a pIC50 of 7.37. Against the preceding molecule, the pIC50 is 0.52 log units higher.

The molecule `Cc1cc(Br)cc(C)c1-n1cc2c(=O)[nH]c(O[C@@H]3CCOC3)nc2n1` [Example 36] showed a pIC50 of 7.72.

`COCc1cc(Br)ccc1-n1cc2c(=O)[nH]c(OC)nc2n1` [Example 41] showed a pIC50 of 7.15.

In turn, `COc1nc2nn(-c3c(C(F)(F)F)nn(C(C)C)c3C)cc2c(=O)[nH]1` [Example 98] gave a negative-log IC50 (pIC50) of 6.30.

Regarding `COc1nc2nn(-c3cc(C)c(Cl)cc3C)cc2c(=O)[nH]1` [Example 26], the negative logarithm of the IC50 (pIC50) was 5.92.

With `[2H]C([2H])([2H])Oc1nc2nn(-c3ccc(C(F)(F)F)cc3OC([2H])([2H])[2H])cc2c(=O)[nH]1` [Example 10], the pIC50 is 7.21.

Consider `COc1nc2nn(-c3cc4c(cc3Cl)OCC4)cc2c(=O)[nH]1` [Example 82], for which the pIC50 was 7.12.

In turn, `COc1nc2nn(-c3c(C)cc(C(C)(F)F)cc3Cl)cc2c(=O)[nH]1` [Example 84] gave a pIC50 of 7.35.

In turn, `COCCOc1nc2nn(-c3c(C)cc(C)cc3C)cc2c(=O)[nH]1` [Example 4] showed a negative logarithm of the IC50 (pIC50) of 7.13.

For `COCCOc1nc2nn(-c3c(C)cc(Br)cc3C)cc2c(=O)[nH]1` [Example 107], the pIC50 is 7.64.

`COCc1cc(C)c(-n2cc3c(=O)[nH]c(OC)nc3n2)c(C)c1` [Example 87]: the pIC50 was 5.92.

`Cc1cc(C2CC2)cc(C)c1-n1cc2c(=O)[nH]c(OCCCS(=O)(=O)C(C)C)nc2n1` [Example 62] gave a negative logarithm of the IC50 (pIC50) of 8.40.

`COc1nc2nn(-c3c(C)cc(C(C)(C)F)cc3C)cc2c(=O)[nH]1` [Example 118] gave a negative logarithm of the IC50 (pIC50) of 7.14.

`Cc1cc(C2CC2)cc(C)c1-n1cc2c(=O)[nH]c(OCCC3CCOCC3)nc2n1` [Example 73] showed a pIC50 of 7.74.

In turn, `COc1nc2nn(-c3c(C)cc(C4CC4)cc3F)cc2c(=O)[nH]1` [Example 28] gave a pIC50 of 7.82. This pIC50 and that of the molecule before are within 0.2 log units of each other.

Consider `COc1nc2nn(-c3ccc(Br)cc3C)cc2c(=O)[nH]1` [Example 69], for which the pIC50 is 7.24.

For the molecule `COc1nc2nn(-c3c(C)cc(C4CC4)cc3OC(F)F)cc2c(=O)[nH]1` [Example 105], the pIC50 is 7.85.

Turning to `COc1nc2nn(-c3c(C)cc(C(C)(C)O)cc3C)cc2c(=O)[nH]1` [Example 31], the pIC50 was 5.62.

The molecule `CCOc1nc2nn(-c3ccc(OC)cc3Br)cc2c(=O)[nH]1` [Example 49] gave a pIC50 of 7.14. Compared with the last molecule, the pIC50 is 1.52 log units higher.

The molecule `COc1nc2nn(-c3ccccc3C)cc2c(=O)[nH]1` [Example 1] gave a negative-log IC50 (pIC50) of 5.38.

Regarding `CCc1cc(Br)cc(C)c1-n1cc2c(=O)[nH]c(OC)nc2n1` [Example 85], the pIC50 is 7.92.

For `COc1nc2nn(-c3c(C)cc(C4CC4)cc3Cl)cc2c(=O)[nH]1` [Example 83], the negative logarithm of the IC50 (pIC50) is 8.10.

Take `Cc1cc(Br)cc(C)c1-n1cc2c(=O)[nH]c(OCCCC#N)nc2n1` [Example 114]: the pIC50 was 7.72.

Molecule `Cc1cc(Br)cc(C)c1-n1cc2c(=O)[nH]c(O[C@H]3CCOC3)nc2n1` [Example 37] gave a pIC50 of 7.89.

Take `COc1nc2nn(-c3c(C)cc(C)cc3C)cc2c(=O)[nH]1` [Example 8]: the pIC50 is 7.43.

As for `CCOc1nc2nn(-c3c(C)cc(C4CC4)cc3C)cc2c(=O)[nH]1` [Example 50], the pIC50 is 8.00.

`Cc1cc(Br)cc(C)c1-n1cc2c(=O)[nH]c(OCCC(C)(C)O)nc2n1` [Example 20] gave a pIC50 of 7.66.

In the case of `Cc1cc(Br)cc(C)c1-n1cc2c(=O)[nH]c(OCCN(C)C)nc2n1` [Example 25], the pIC50 was 7.28.

With `COc1nc2nn(-c3ccc(Br)cc3C(F)F)cc2c(=O)[nH]1` [Example 59], the pIC50 was 7.26. This pIC50 and that of the molecule before are within 0.2 log units of each other.

With `COc1cc(C)c(-n2nc3nc(OC)[nH]c(=O)c3c2C2CC2)c(C)c1` [Example 95], the pIC50 was 7.17.

On to `Cc1cc(Br)cc(C)c1-n1cc2c(=O)[nH]c(OCCCO)nc2n1` [Example 99], for which the pIC50 was 7.92.

`Cc1cc(C2CC2)cc(C)c1-n1cc2c(=O)[nH]c(OCC(F)F)nc2n1` [Example 68]: the pIC50 was 7.60.

Molecule `COc1nc2nn(-c3cc4c(cc3Cl)OCCC4)cc2c(=O)[nH]1` [Example 103] had a negative logarithm of the IC50 (pIC50) of 6.96. Against the preceding molecule, the pIC50 is 0.64 log units lower.

Regarding `CCc1cc(Br)ccc1-n1cc2c(=O)[nH]c(OC)nc2n1` [Example 70], the pIC50 is 7.60.

Molecule `Cc1cc(C2CC2)cc(C)c1-n1cc2c(=O)[nH]c(OCCC(C)(C)C#N)nc2n1` [Example 117] gave a pIC50 of 7.51.

The molecule `Cc1cc(C2CC2)cc(C)c1-n1cc2c(=O)[nH]c(OCCCO)nc2n1` [Example 116] showed a negative-log IC50 (pIC50) of 7.96.

Take `Cc1cc(Br)cc(C)c1-n1cc2c(=O)[nH]c(OCCC3COC3)nc2n1` [Example 30]: the negative-log IC50 (pIC50) was 7.29. This pIC50 lies 0.67 log units lower than the previous one.

Molecule `COc1nc2nn(-c3c(C)cc(C(F)(F)F)cc3C)cc2c(=O)[nH]1` [Example 22] had a pIC50 of 7.37.

`COCc1cc(C2CC2)cc(C)c1-n1cc2c(=O)[nH]c(OC)nc2n1` [Example 92]: the pIC50 was 7.68.

`COc1nc2nn(-c3c(C)cc(OC(F)F)cc3F)cc2c(=O)[nH]1` [Example 66] showed a negative logarithm of the IC50 (pIC50) of 7.11.

In the case of `COc1nc2nn(-c3c(C)cc(Br)cc3C#N)cc2c(=O)[nH]1` [Example 101], the negative-log IC50 (pIC50) is 5.62.

With `CCOc1nc2nn(-c3c(C)cc(Br)cc3C)cc2c(=O)[nH]1` [Example 34], the negative-log IC50 (pIC50) is 7.92. This pIC50 is 2.30 log units higher than that of the molecule before.

For the molecule `COc1nc2nn(-c3ccc(Br)cc3C(C)C)cc2c(=O)[nH]1` [Example 81], the pIC50 is 7.24.

The molecule `Cc1cc(C)c(-n2cc3c(=O)[nH]c(OCc4ccccc4)nc3n2)c(C)c1` [Example 7] showed a pIC50 of 7.14.

`CCc1cc(OC)cc(C)c1-n1cc2c(=O)[nH]c(OC)nc2n1` [Example 86] showed a negative-log IC50 (pIC50) of 7.31.

The molecule `COc1nc2nn(-c3c(C)cc(C4CC4)cc3C)c(C#N)c2c(=O)[nH]1` [Example 119] had a pIC50 of 7.64.

On to `COc1nc2nn(-c3c(F)cc(F)cc3Cl)cc2c(=O)[nH]1` [Example 75], for which the negative-log IC50 (pIC50) was 5.89. This pIC50 lies 1.75 log units lower than the previous one.
